According to patent publication US20130202649A1, “ACTIVATION OF INNATE IMMUNITY FOR NUCLEAR REPROGRAMMING OF SOMATIC CELLS” (The Board of Trustees of the Leland Stanford Junior …, priority 2012, published 2013):

Tests used:
[1] = system: NF-κB; assay: NF-κB luciferase assay; assay type: cell-based, human; settings: BJ fibroblasts; poly IC 300 ng/ml
Experimental: NF-κB Luciferase assay BJ fibroblasts (3×105) were seeded in a 6-well plate and subjected to either pMX-GFP infection, CPP-SOX2 treatment with or without poly IC (300 ng/ml). Cells were transfected with pNF-κB-Luc and pFC-MEKK as a positive control plasmid using Lipofectamine 2000. Twentyfour hours post-transfection, cells were collected for measuring the luciferase activity by the Bright-Glo™ Luciferase Assay System using a luminometer.

[2] = system: HDAC; assay: HDAC expression (cDNA profiling, Western); assay type: cell-based, human
Description: Histone acetylation status influences the folding and functional state of the chromatin and modulates the accessibility of DNA to the transcriptional machinery for gene expression. Histone de-acetylation is generally associated with a closed chromatin state, and inhibitors of histone de-acetylase (HDAC) such as valproic acid are employed to enhance nuclear reprogramming. […] The downregulation of HDAC1 expression by poly I:C was confirmed by Western analysis (FIG. 17).
Gene Expression and Microarray Analyses RNA was isolated with the RNeasy kit. First-strand cDNA was primed with oligo(dT) primers and qPCR was performed with primer sets from Applied Biosystems. RNA probes were prepared and hybridized to Illumina HumanHT-12 v4 Expression BeadChip microarrays.
Western Blotting Proteins were extracted from BJ fibroblasts by solubilizing the cells in RIPA buffer containing 1× protease inhibitor cocktail. 25 μg of total protein was loaded and resolved on SDSpolyacrylamide gels, transferred to PVDF membranes and probed with the following primary antibodies: anti-HP1α and anti-HDAC (Cell Signaling), and β-actin (Sigma, A5441). Immunoblots were developed with enhanced chemiluminescence reagents (Amersham).

[3] = system: human fibroblasts; assay: CPP-induced generation of human iPSCs; assay type: cell-based
Description: It is known that persistent expression (about 2 weeks) of the reprogramming factors is required using viral vectors to generate mouse iPSCs. […] We hypothesized that activation of the TLR3 pathway might facilitate epigenetic alterations required for full transcriptional effect of the CPPs. We also attempted to mimic the biphasic effect of the reprogramming factors introduced as viral vectors by reducing the dose of CPPs after 6 days. Accordingly, we exposed human fibroblasts to the four CPP-transcription factors (Oct4-R11, Sox2-R11, Klf4-R11 and cMyc-R11) (at a dose of 200 nM for days 1-6, and a dose of 100 nM for days 7-21), in the presence or absence of poly I:C (300 ng/ml) for days 1-6 (FIG. 7A). The cultures were transferred to feeder cells (inactivated MEFs) at day 26. In the presence of poly I:C, Oct4 expression was accelerated (FIG. 7B). […] Small colonies were observed by day 21 and ES like colonies appeared by day 30, many of which expressed TRA-1-81 as indicated by live cell staining. By contrast, in human fibroblasts not exposed to poly I:C, colonies were not observed until day 30 days. By day 40, colony number was increased by more than 4-fold in cells exposed to poly I:C (FIG. 7C). Application of our insights regarding the role of TLR3 signaling in nuclear reprogramming permitted us to successfully reprogram human fibroblasts to pluripotency using CPPs.
Protein-iPSCs: Recombinant Oct4, Sox2, Klf4, and cMyc human proteins (CPPs) contained an eleven-arginine membrane penetration domain at the C terminus were obtained from Stemgent. Human fibroblasts were treated with CPPs encoding the reprogramming factors (CPP-Oct4, CPP-Sox2, CPP-Klf4 and CPP-Myc) daily for 6 days with 200 nM CPPs, followed by daily treatments of 100 nM CPPs from day 7 to day 20. Poly I:C (300 ng/ml) or vehicle was added to the cell simultaneously only up to day 6. The cells were passed onto MEF feeders at day 30. After 20 days of CPP treatments, wells were closely scanned for colonies.
Immunostaining of Live Cells For the detection of SSEA-1 or TRA-1-81 in live cells, the primary Ab (anti-mouse SSEA-1, antihuman TRA-1-81, Stemgent) was diluted to a final concentration of 2.5 to 5 μg/ml in fresh cell culture medium and incubated with cells for 30 minutes at 37° C. and 5% CO2. After gentle washing the cells were examined under a fluorescent microscope.

[4] = system: Oct4 and Sox2 promoters; assay: ChIP of histone H3 trimethylation at Oct4 and Sox2 promoters; assay type: cell-based, human
Experimental: We hypothesized that TLR3 activation might enhance early transcriptional activation by inducing an open chromatin state, permitting the reprogramming factors to induce an ESC-specific gene expression pattern. Accordingly, we performed ChIP assays to detect trimethylation of histone H3 at lysine 4 (H3K4me3). This epigenetic modification marks transcriptionally active genes. Human fibroblasts were treated with pMXSox2, or with CPPSox2 in the presence of poly I:C or pMXGFP. […] In a similar fashion, we assessed histone H3 at lysine 9 (H3K9me3) in the Oct4 and Sox2 promoters. This epigenetic modification marks transcriptionally silenced genes. […] These studies provided an epigenetic mechanism to explain the effect of TLR3 activation to enhance nuclear reprogramming.
Chromatin Immunoprecipitation and ChIP-qPCR qChIP was performed as previously described (Lim et al., 2009; Peng et al., 2009). For qChIP and qRT-PCR, error estimates are standard deviations. Recovery of genomic DNA as the percentage input was calculated as the ratio of copy numbers in the immunoprecipitate to the input control. Primers of Oct4 and Sox2 promoters were purchased from Cell Signaling.

[5] = in combination with CPPSox2, day 2

## Polyinosinicpolycytidylic acid [Poly I:C]
[1]
  NF-κB activation (luciferase reporter): induced NF-κB activation
[2]; CPP treated human fibroblasts
  expression of a suite of HDAC genes: downregulated
[2]; day 2 to day 6
  HDAC 1 protein expression (immunoblot): early (day 2) and sustained (to day 6) inhibition
[3]; day 40, cells exposed to poly I:C versus not
  increase in colony number: more than 4 fold
[3]; four CPPs 200 nM days 1-6, 100 nM days 7-21, poly I:C 300 ng/ml days 1-6
  Oct4 expression: accelerated
[3]; four CPPs plus poly I:C 300 ng/ml days 1-6
  iPSC generation: accelerated iPSC generation
[3]; four CPPs plus poly I:C 300 ng/ml days 1-6, without poly I:C not until day 30
  small colonies observed by: ≤ 21 days
[4]; CPP-treated fibroblasts
  H3K4 trimethylation at the Sox2 promoter: accelerated H3K4 trimethylation
  H3K9 trimethylation at the Sox2 promoter: accelerated the loss of H3K9 trimethylation
[4]; agent alone, day 2 (time course day 2-6)
  H3K4 trimethylation at the Oct4 promoter: had no effect
[4]; [5]
  H3K4 trimethylation at the Oct4 promoter: induced changes in H3K4 trimethylation
  H3K9 trimethylation at the Oct4 promoter: enhanced the H3K9 trimethylation
